Assay results from patent US20250235456A1, “METHODS OF USE FOR AZA-QUINAZOLINE COMPOUNDS” (Iambic Therapeutics, Inc., priority 2024, published 2025).
pIC50: −log10 of the molar value.

What was measured:
Type in all cases: biochemical
CDK4/Cyclin D1 = CDK4/Cyclin D1 (Homo sapiens (Human), UniProt P11802); assay: CDK4/Cyclin D1 CHEF Assay; details: AQT; read-out: CDK4/CyclinD1 AQT IC50
From the text: CDK4/Cyclin D1 CHEF Assay
The purpose of CDK4/Cyclin Dl assay is to evaluate the inhibition (% inhibition and IC50 values) of small molecule inhibitors by using a Chelation-Enhance Fluorescence (CHEF) assay. In a CHEF assay, phosphorylation of a peptide substrate results in proportional increase in fluorescence. CHEF kinase assay use peptide substrates containing a synthetic alpha-amino acid with a side chain bearing an 8-hydroxyquinoline derivative (sulfonamido-oxide, Sox). Upon phosphorylation of a nearby serine, threonine or tyrosine and in the presence of Mg(II), the spectral properties of the Sox residue are altered, emitting 485 nm wavelength light when excited with a 360 nm wavelength light source. CDK4/Cyclin D1 catalyzes the phosphoryl transfer to the SOX-labeled substrate peptide AQT0258 from Assayquant Technologies. […] The reaction was initiated with the addition of substrate solution, following a 30-minute pre-incubation of enzyme and inhibitor at 22° C. in the reaction mix. Reactions were allowed to proceed for 3 hrs at 22° C., followed by fluorescence read of the reaction. The IC50 determinations were made from a plot of the fractional velocity as a function of inhibitor concentration fit to the 4 parameters IC50 equation.

CDK6/Cyclin D3 = CDK6/Cyclin D3 (Homo sapiens (Human), UniProt Q00534); assay: CDK6/Cyclin D3 ADP-Glo Kinase Assay; details: read-out: CDK6/CyclinD3 IC50
CDK6/Cyclin D3, sequence (Q00534 whole entry): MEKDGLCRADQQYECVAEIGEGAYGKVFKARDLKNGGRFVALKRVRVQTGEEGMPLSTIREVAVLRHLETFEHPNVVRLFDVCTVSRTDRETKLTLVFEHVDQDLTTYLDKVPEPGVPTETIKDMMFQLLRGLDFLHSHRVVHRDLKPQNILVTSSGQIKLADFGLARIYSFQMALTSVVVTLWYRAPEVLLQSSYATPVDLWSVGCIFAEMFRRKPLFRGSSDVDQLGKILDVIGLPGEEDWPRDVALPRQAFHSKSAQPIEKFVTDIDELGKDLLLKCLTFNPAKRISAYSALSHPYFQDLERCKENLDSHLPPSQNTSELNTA
CDK6/Cyclin D3, sequence (P30281 whole entry partner): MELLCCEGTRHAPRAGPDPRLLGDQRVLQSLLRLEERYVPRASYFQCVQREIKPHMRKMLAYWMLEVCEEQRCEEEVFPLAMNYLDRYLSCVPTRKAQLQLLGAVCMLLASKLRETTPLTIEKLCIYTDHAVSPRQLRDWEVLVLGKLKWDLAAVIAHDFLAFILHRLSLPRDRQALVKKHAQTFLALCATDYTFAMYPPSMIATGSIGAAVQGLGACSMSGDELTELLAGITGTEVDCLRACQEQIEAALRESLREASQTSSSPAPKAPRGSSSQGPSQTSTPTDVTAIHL
Method: CDK6/Cyclin D3 ADP-Glo Kinase Assay
(§1) The purpose of the CDK6/Cyclin D3 assay is to evaluate the inhibition (% inhibition and IC50 values) in the presence of small molecule inhibitors by using a Luminescent based ADP-Glo assay. CDK6/Cyclin D3 catalyzes the production of ADP from ATP. ADP-Glo assay monitors ADP producing biochemical reactions. ADP-Glo is performed in 2 steps upon completion of kinase reaction: a combined termination of kinase reaction and depletion of remaining ATP in the first step, and conversion of generated ADP to ATP and the newly produced ATP to light output using luciferase/luciferin reaction in the second step. The luminescent signal generated is proportional to the ADP concentration produced and is correlated with the kinase activity. CDK6/Cychin D3 was purchased from Carna. […] The assay was initiated with the addition of ATP-containing substrate solution, following a 30-minute pre-incubation of enzyme and inhibitor at room temperature in the reaction mixture. The reaction was stopped after 90 minutes at room temperature by the addition of 10 μL of ADP-GLO Reagent. After a 90-minute incubation, 20 μL of Kinase Detection Reagent was added. Samples were incubated for 40 minutes, after which plate well luminescence was measured on a Envision microplate reader. The IC50 determinations were made from a plot of the fractional velocity as a function of inhibitor concentration fit to the 4 parameters IC50 equation.

CDK1/Cyclin B1 = CDK1/Cyclin B1 (Homo sapiens (Human), UniProt P06493); assay: CDK1/Cyclin B1 ADP-Glo Kinase Assay
CDK1/Cyclin B1, sequence (P06493 whole entry): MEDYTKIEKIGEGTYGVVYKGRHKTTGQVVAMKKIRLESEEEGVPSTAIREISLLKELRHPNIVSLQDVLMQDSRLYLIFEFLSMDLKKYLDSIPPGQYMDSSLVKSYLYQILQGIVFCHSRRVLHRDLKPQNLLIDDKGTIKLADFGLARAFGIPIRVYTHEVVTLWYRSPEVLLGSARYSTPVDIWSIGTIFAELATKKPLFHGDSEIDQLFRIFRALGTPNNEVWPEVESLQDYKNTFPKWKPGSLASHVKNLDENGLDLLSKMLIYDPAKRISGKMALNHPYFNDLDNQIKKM
CDK1/Cyclin B1, sequence (P14635 whole entry partner): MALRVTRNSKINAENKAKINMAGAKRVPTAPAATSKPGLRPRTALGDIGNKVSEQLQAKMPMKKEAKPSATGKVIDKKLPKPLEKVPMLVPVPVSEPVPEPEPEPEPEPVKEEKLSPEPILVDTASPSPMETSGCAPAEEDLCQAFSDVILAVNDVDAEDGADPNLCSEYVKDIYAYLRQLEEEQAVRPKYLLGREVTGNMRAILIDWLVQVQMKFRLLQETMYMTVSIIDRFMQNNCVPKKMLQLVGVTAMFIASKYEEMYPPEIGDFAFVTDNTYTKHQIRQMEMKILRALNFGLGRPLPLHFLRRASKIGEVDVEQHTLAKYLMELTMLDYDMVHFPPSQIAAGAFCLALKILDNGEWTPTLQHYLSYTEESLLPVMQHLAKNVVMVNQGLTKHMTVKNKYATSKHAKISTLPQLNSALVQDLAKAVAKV
Method: CDK1/Cyclin B1 ADP-Glo Kinase Assay
as §1, with “CDK1/Cyclin Bi” for “the CDK6/Cyclin D3”, “values)” for “values) in the presence”, “CDK1/Cyclin B1” for “CDK6/Cyclin D3”, “CDK1/Cyclin B1” for “CDK6/Cychin D3”, “Carna (Cat 04-102).” for “Carna.”, “90 minute” for “90-minute”

CDK4/Cyclin D1, sequence (P11802 whole entry, species assumed): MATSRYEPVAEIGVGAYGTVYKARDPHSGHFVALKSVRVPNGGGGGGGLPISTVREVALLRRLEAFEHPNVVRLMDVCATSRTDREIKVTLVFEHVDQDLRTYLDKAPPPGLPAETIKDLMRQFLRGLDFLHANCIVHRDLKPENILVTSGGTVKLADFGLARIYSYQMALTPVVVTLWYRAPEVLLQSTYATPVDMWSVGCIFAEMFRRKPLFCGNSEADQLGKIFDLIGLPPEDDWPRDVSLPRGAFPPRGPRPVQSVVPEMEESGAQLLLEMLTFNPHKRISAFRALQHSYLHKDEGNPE
CDK4/Cyclin D1, sequence (P24385 whole entry partner, species assumed): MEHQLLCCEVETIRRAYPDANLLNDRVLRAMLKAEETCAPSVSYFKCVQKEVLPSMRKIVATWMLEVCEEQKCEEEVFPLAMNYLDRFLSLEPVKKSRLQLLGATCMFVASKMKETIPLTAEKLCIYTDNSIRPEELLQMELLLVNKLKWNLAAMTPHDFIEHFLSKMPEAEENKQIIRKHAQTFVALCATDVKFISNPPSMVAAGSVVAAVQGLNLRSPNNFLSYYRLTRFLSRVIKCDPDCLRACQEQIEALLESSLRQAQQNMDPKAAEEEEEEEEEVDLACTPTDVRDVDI

Structure (SMILES) | pIC50 (CDK4/Cyclin D1) | pIC50 (CDK6/Cyclin D3) | pIC50 (CDK1/Cyclin B1)
Cc1cc2cnc(NC3CCN(S(C)(=O)=O)CC3)nc2c(C2CC(C)(CO)C2)n1 (centres unmarked) [Compound 69, (1-methyl-3-(6-methyl-2-((1-(methylsulfonyl)piperidin-4-yl)amino)pyrido[3,4-d]pyrimidin-8-yl)cyclobutyl) methanol] | > 6.70 | > 6.70 | –
CN1C[C@@H]2[C@H](C1)[C@H]2Nc1ncc2ccnc(N3CCC4(CCN(S(C)(=O)=O)C4)C3)c2n1 (stereo partly drawn) [Compound 15, N-((1R,5S,6s)-3-methyl-3-azabicyclo[3.1.0]hexan-6-yl)-8-(7-(methylsulfonyl)-2,7-diazaspiro[4.4]nonan-2-yl) pyrido[3,4-d]pyrimidin-2-amine] | – | < 5.70 | < 5.70
CN1Cc2ccc(Nc3ncc4ccnc(N5CCC6(CCN(S(C)(=O)=O)C6)C5)c4n3)cc2C1 (centres unmarked) [Compound 23, N-(2-methylisoindolin-5-yl)-8-(7-(methylsulfonyl)-2,7-diazaspiro[4.4]nonan-2-yl) pyrido[3,4-d]pyrimidin-2-amine] | > 6.70 | > 6.70 | –
Cc1cc2cnc(NC3CCN(S(=O)(=O)C4CC4)CC3)nc2c(N2CC3(CNC3)C2)n1 [Compound 32, N-(1-(cyclopropylsulfonyl)piperidin-4-yl)-6-methyl-8-(2,6-diazaspiro[3.3]heptan-2-yl) pyrido[3,4-d]pyrimidin-2-amine] | > 6.70 | > 6.70 | –
FC(F)c1cc2cnc(Nc3ccc4c(c3)CN(C3CC3)C4)nc2c(N2CC3(CCNC3)C2)n1 [Compound 50, N-(2-cyclopropylisoindolin-5-yl)-6-(difluoromethyl)-8-(2,6-diazaspiro[3.4]octan-2-yl)pyrido[3,4-d]pyrimidin-2-amine] | > 6.70 | > 6.70 | –
Cc1cc2cnc(NC3CCN(S(=O)(=O)C4CC4)CC3)nc2c(N2CC3(CCN(C)C3)C2)n1 [Compound 49, N-(1-(cyclopropylsulfonyl)piperidin-4-yl)-6-methyl-8-(6-methyl-2,6-diazaspiro[3.4]octan-2-yl)pyrido[3,4-d]pyrimidin-2-amine] | > 6.70 | 6.30 to 6.70 | –
[2H]C([2H])([2H])N1CC2(CN(c3nc(C)cc4cnc(NC5CCN(S(=O)(=O)C6CC6)CC5)nc34)CC2(F)F)C1 [Compound 13, N-(1-(cyclopropylsulfonyl)piperidin-4-yl)-8-(8,8-difluoro-2-(methyl-d3)-2,6-diazaspiro[3.4]octan-6-yl)-6-methylpyrido[3,4-d]pyrimidin-2-amine] | – | – | > 6.70
Cc1cc2cnc(Nc3cnn(C4CN(CC#N)C4)c3)nc2c(N2CC3(CN(C)C3)C2)n1 [Compound 31, 2-(3-(4-((6-methyl-8-(6-methyl-2,6-diazaspiro[3.3]heptan-2-yl)pyrido[3,4-d]pyrimidin-2-yl)amino)-1H-pyrazol-1-yl)azetidin-1-yl)acetonitrile] | – | – | < 5.70
CS(=O)(=O)N1CCC(Nc2ncc3cc(C4CC4)nc(C4CC5(CNCCO5)C4)c3n2)CC1 (centres unmarked) [Compound 70, 6-cyclopropyl-N-(1-(methylsulfonyl)piperidin-4-yl)-8-(5-oxa-8-azaspiro[3.5]nonan-2-yl)pyrido[3,4-d]pyrimidin-2-amine] | – | – | > 6.70
Cc1cc2cnc(NC3CCN(S(=O)(=O)C4CC4)CC3)nc2c(N2CC(CS(C)(=O)=O)C2)n1 [Compound 74, N-(1-(cyclopropylsulfonyl)piperidin-4-yl)-6-methyl-8-(3-((methylsulfonyl)methyl)azetidin-1-yl)pyrido[3,4-d]pyrimidin-2-amine] | 6.30 to 6.70 | 6.30 to 6.70 | –
Cc1cc2cnc(NC3CCN(S(=O)(=O)C4CC4)CC3)nc2c(N2CC(N3CC(F)C3)C2)n1 [Compound 72, N-(1-(cyclopropylsulfonyl)piperidin-4-yl)-8-(3-fluoro-[1,3′-biazetidin]-1′-yl)-6-methylpyrido[3,4-d]pyrimidin-2-amine] | 6.30 to 6.70 | 6.30 to 6.70 | –
Cc1cc2cnc(Nc3ccc4c(c3)CN(C3CC3)C4)nc2c(N2CC3(CCNC3)C2)n1 [Compound 47] | > 6.70 | > 6.70 | –
Cc1cc2cnc(NC3CCN(S(C)(=O)=O)CC3)nc2c(N2CCC3(C2)CC3(F)F)n1 (centres unmarked) [Compound 41, 8-(1,1-difluoro-5-azaspiro[2.4]heptan-5-yl)-6-methyl-N-(1-(methylsulfonyl)piperidin-4-yl)pyrido[3,4-d]pyrimidin-2-amine] | – | – | > 6.70
[2H]C([2H])([2H])N1CC2(CN(c3nc(C)cc4cnc(NC5CCN(S(C)(=O)=O)CC5)nc34)CC2(F)F)C1 [Example 12, 8-(8,8-difluoro-2-(methyl-d3)-2,6-diazaspiro[3.4]octan-6-yl)-6-methyl-N-(1-(methylsulfonyl)piperidin-4-yl)pyrido[3,4-d]pyrimidin-2-amine] | – | – | > 6.70
Cc1cc2cnc(NC3CCN(S(C)(=O)=O)CC3)nc2c(C2CC3(CNCC3(F)F)C2)n1 (centres unmarked) [Compound 99, 8-(8,8-difluoro-6-azaspiro[3.4]octan-2-yl)-6-methyl-N-(1-(methylsulfonyl)piperidin-4-yl)pyrido[3,4-d]pyrimidin-2-amine] | – | – | > 6.70
Cc1cc2cnc(NC3CCN(S(C)(=O)=O)CC3)nc2c(N2CC3(CC(O)C3)C2)n1 [Compound 73, 2-(6-methyl-2-((1-(methylsulfonyl)piperidin-4-yl)amino)pyrido[3,4-d]pyrimidin-8-yl)-2-azaspiro[3.3]heptan-6-ol] | > 6.70 | 6.30 to 6.70 | –
Cc1cc2cnc(Nc3cnn(CC4(N(C)C)CC4)c3)nc2c(N2CCC(C#N)(C3CC3)C2)n1 (centres unmarked) [Compound 38, 3-cyclopropyl-1-(2-((1-((1-(dimethylamino)cyclopropyl)methyl)-1H-pyrazol-4-yl)amino)-6-methylpyrido[3,4-d]pyrimidin-8-yl)pyrrolidine-3-carbonitrile] | – | < 5.70 | < 5.70
[2H]C([2H])([2H])N1CC2(CN(c3nc(C)cc4cnc(NC5CCN(S(=O)(=O)c6cnn(C)c6)CC5)nc34)CC2(F)F)C1 [Example 11, 8-(8,8-difluoro-2-(methyl-d3)-2,6-diazaspiro[3.4]octan-6-yl)-6-methyl-N-(1-((1-methyl-1H-pyrazol-4-yl)sulfonyl)piperidin-4-yl)pyrido[3,4-d]pyrimidin-2-amine] | – | – | > 6.70
COCCN1CC2(C1)CN(c1nc(C3CC3)cc3cnc(NC4CCN(S(=O)(=O)CC5CCC5)CC4)nc13)C2 [Compound 64, N-(1-((cyclobutylmethyl)sulfonyl)piperidin-4-yl)-6-cyclopropyl-8-(6-(2-methoxyethyl)-2,6-diazaspiro[3.3]heptan-2-yl)pyrido [3,4-d]pyrimidin-2-amine] | > 6.70 | 6.30 to 6.70 | –
Cc1cc2cnc(NC3CCN(S(=O)(=O)CC4CCCC4)CC3)nc2c(N2CC3(CCNC3)C2)n1 [Compound 51, N-(1-((cyclopentylmethyl)sulfonyl)piperidin-4-yl)-6-methyl-8-(2,6-diazaspiro[3.4]octan-2-yl)pyrido[3,4-d]pyrimidin-2-amine] | > 6.70 | 6.30 to 6.70 | –
CS(=O)(=O)N1CCC(Nc2ncc3ccnc(N4CC5(CCCC5)c5c(F)cccc54)c3n2)CC1 [Compound 19, 8-(4′-fluorospiro [cyclopentane-1,3′-indolin]-1′-yl)-N-(1-(methylsulfonyl)piperidin-4-yl)pyrido[3,4-d]pyrimidin-2-amine] | – | < 5.70 | < 5.70
